Experiment [1] deals with ALOMY. In words: Post-emergence action against ALOMY. It counts as in vivo, Alopecurus myosuroides. As to conditions: Alopecurus myosuroides, 504 h; Dosage 80 g/ha, post-emergence. In outline:
(§1)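 Post-emergence foliar spray on greenhouse plants at the one-leaf stage, using wettable-powder or emulsion-concentrate formulations in water (600 to […], plus 0.2% wetting agent). Damage scored by eye roughly 3 weeks later against untreated plants: 0% = like control, 100% = dead.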

For experiment [2], the system named is LOLRI. The experiment can be described thus: Post-emergence action against LOLRI. It counts as in vivo, Lolium rigidum. The conditions noted are these: Lolium rigidum, 504 h, dosage 80 g/ha, visual assessment about 3 weeks after treatment vs untreated controls, read-out: Post-emergence action against LOLRI (herbicidal action in percent). In outline:
as §1

Experiment [3] deals with VERPE. In words: Post-emergence action against VERPE. It counts as in vivo, Veronica persica. The conditions noted are these: Veronica persica, 504 h, dosage 80 g/ha. The method in brief: as §1
In another experiment the test system is SETVI. The experiment can be described thus: Pre-emergence action against SETVI. Format: in vivo, Setaria viridis. As to conditions: Setaria viridis, 504 h; pre-emergence, dosage 320 g/ha, scored visually after 3 weeks vs untreated controls; read-out: SETVI (Table B8, pre-emergence herbicidal activity). The method in brief: (§2)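 Seeds sown in sandy loam in wood-fiber pots and covered with soil. Greenhouse growth; visual damage scored after 3 weeks versus untreated controls (100% = dead, 0% = like control).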

Experiment [4] concerns VERPE. In words: Pre-emergence action against VERPE. Format: in vivo, Veronica persica. The conditions noted are these: Veronica persica, 504 h; Dosage 320 g/ha, pre-emergence. The method in brief: as §2
Another experiment relates to AMARE. In words: Post-emergence action against AMARE. It counts as in vivo, Amaranthus retroflexus. As to conditions: Amaranthus retroflexus, 504 h; post-emergence, dosage 80 g/ha, visual assessment about 3 weeks after treatment vs untreated controls; read-out: Post-emergence action against AMARE (herbicidal action in percent). In outline: as §1
Experiment [5] deals with HORMU. In words: Post-emergence action against HORMU. It counts as in vivo, Hordeum murinum. The conditions noted are these: dosage 80 g/ha. On the procedure: Seeds of monocotyledonous and dicotyledonous weed and crop plants are laid out in sandy loam soil in wood-fiber pots, covered with soil and cultivated in a greenhouse under good growth conditions. 2 to 3 weeks after sowing, the test plants are treated at the one-leaf stage. The compounds of the invention, formulated in the form of wettable powders (WP) or as emulsion concentrates (EC), are then sprayed onto the green parts of the plants in the form of an aqueous suspension or emulsion at a water application rate equating to […], with addition of 0.2% wetting agent. After the test plants have been left to stand in the greenhouse under optimal growth conditions for about 3 weeks, the action of the preparations is assessed visually in comparison to untreated controls (herbicidal action in percent (%): 100% activity=the plants have died, 0% activity=like control plants). […] At the same time, inventive compounds leave Gramineae crops such as barley, wheat, rye, millet/Sorghum, corn or rice virtually undamaged when applied post-emergence, even at high active ingredient dosages. In addition, some substances are also harmless to dicotyledonous crops such as soya, cotton, oilseed rape, sugar beet or potatoes. Some of the compounds according to the invention have high selectivity and are therefore suitable for controlling unwanted vegetation in agricultural crops by the post-emergence method. The data of Tables B18 to B34 below illustrate, in an exemplary manner, the […] herbicidal action of the compounds according to the invention, the herbicidal activity being stated in percent.

In experiment [6] the test system is LOLRI. The experiment can be described thus: Pre-emergence action against LOLRI. Format: in vivo, Lolium rigidum. As to conditions: Lolium rigidum, 504 h, dosage 320 g/ha, scored visually after 3 weeks vs untreated controls, read-out: Pre-emergence action against LOLRI (herbicidal activity). The method in brief:
as §2

In experiment [7] the test system is HORMU. The experiment can be described thus: Pre-emergence action against HORMU. It counts as in vivo, Hordeum murinum. The conditions noted are these: Hordeum murinum, 504 h, Dosage 320 g/ha. In outline: as §2
In experiment [8] the test system is ALOMY. The experiment can be described thus: Pre-emergence action against ALOMY. Format: in vivo, Alopecurus myosuroides. The conditions noted are these: Alopecurus myosuroides, 504 h; dosage 320 g/ha; pre-emergence; scored visually after 3 weeks vs untreated controls; 100% = plants have died, 0% = like control plants; read-out: Pre-emergence action against ALOMY (herbicidal activity in percent). In outline: as §2

Another experiment deals with PHBPU. The experiment can be described thus: Pre-emergence action against PHBPU. It counts as in vivo, Pharbitis purpurea. As to conditions: Ipomoea purpurea, 504 h; Dosage 320 g/ha, pre-emergence. In outline:
as §2

Experiment [9] has as its system DIGSA. In words: Pre-emergence action against DIGSA. Format: in vivo, Digitaria sanguinalis. As to conditions: dosage 320 g/ha, scored visually after 3 weeks vs untreated controls. The method in brief:
as §2

Experiment [10] deals with DIGSA. In words: Post-emergence action against DIGSA. Format: in vivo, Digitaria sanguinalis. As to conditions: dosage 80 g/ha, visual assessment about 3 weeks after treatment vs untreated controls. In outline: as §1

The structures appear in SMILES notation.

With `CSc1c(C(=O)Nc2nnnn2C)ccc(C(F)(F)F)c1C(=O)C1CC1` [1-60], the pest or weed control at 80 g/ha with ALOMY [1], in the experiment with LOLRI [2], with VERPE [3] and in the experiment on AMARE was 100% each time. Besides, the pest or weed control at 320 g/ha in the experiment with SETVI, in the experiment with VERPE [4], in the experiment with LOLRI [6], with HORMU [7], in the experiment on ALOMY [8] and in the experiment on PHBPU was 100% throughout. For the same compound, the “Post-emergence action against HORMU” value with HORMU [5] was found to be 100.

Turning to `CSc1c(C(=O)Nc2nnnn2C)ccc(C(F)F)c1C(=O)C1CC1` [1-67], the pest or weed control at 80 g/ha with ALOMY [1], in the experiment on LOLRI [2], in the experiment on VERPE [3] and with AMARE was 100% in each case. Moreover, the pest or weed control at 320 g/ha in the experiment on SETVI was 100%; in the experiment with VERPE [4] it was 100%; in the experiment with LOLRI [6] it was 100%; with HORMU [7], 80%; with ALOMY [8], 100%; in the experiment with PHBPU, 100%. Also, the “Post-emergence action against HORMU” value in the experiment on HORMU [5] came to 100.

In the case of `Cn1nnnc1NC(=O)c1ccc(C(F)F)c(C(=O)C2CC2)c1Cl` [1-168], the pest or weed control at 80 g/ha with ALOMY [1], with LOLRI [2], with VERPE [3] and with AMARE was 100% each time. The pest or weed control at 320 g/ha in the experiment on SETVI, in the experiment on VERPE [4], in the experiment on LOLRI [6], in the experiment on HORMU [7], with ALOMY [8] and in the experiment on PHBPU was 100% in each case. Also, the “Post-emergence action against HORMU” value with HORMU [5] amounted to 100.

On to `CC(=O)c1c(I)ccc(C(=O)Nc2nnnn2C)c1Cl` [1-192], for which the pest or weed control at 80 g/ha with ALOMY [1] came to 80%; with LOLRI [2], 100%; with AMARE, 100%. The pest or weed control at 320 g/ha in the experiment with SETVI, with LOLRI [6], in the experiment on HORMU [7], in the experiment with ALOMY [8] and with PHBPU was 100% each time. Moreover, the “Post-emergence action against HORMU” value with HORMU [5] worked out at 100.

As for `Cn1nnnc1NC(=O)c1ccc(C(F)(F)F)c(C(=O)C2CC2)c1C1CC1` [1-233], the pest or weed control at 80 g/ha with ALOMY [1] amounted to 90%; with LOLRI [2] it was 90%; in the experiment with VERPE [3], 100%; in the experiment on AMARE, 90%. For the same compound, the pest or weed control at 320 g/ha with SETVI, in the experiment with VERPE [4], in the experiment with LOLRI [6], in the experiment with HORMU [7], in the experiment with ALOMY [8] and in the experiment on PHBPU was 100% throughout. The “Pre-emergence action against DIGSA (herbicidal activity)” value in the experiment on DIGSA [9] worked out at 100%. Moreover, the “Post-emergence action against DIGSA (herbicidal action in percent)” value in the experiment on DIGSA [10] was 100%. Moreover, the “Post-emergence action against HORMU” value in the experiment on HORMU [5] was 80.

Take `CCn1nnnc1NC(=O)c1ccc(C(F)(F)F)c(C(=O)C2CC2)c1C` [2-18, 3-(cyclopropylcarbonyl)-N-(1-ethyl-1H-tetrazol-5-yl)-2-methyl-4-(trifluoromethyl)benzamide]: the pest or weed control at 80 g/ha in the experiment on ALOMY [1] was determined as 100%; with LOLRI [2], 100%; with VERPE [3], 80%; in the experiment with AMARE, 100%. Also, the pest or weed control at 320 g/ha in the experiment on SETVI stood at 100%; in the experiment on VERPE [4] it was 100%; in the experiment on LOLRI [6], 100%; with HORMU [7], 100%; with ALOMY [8] it was 100%; in the experiment on PHBPU, 90%. For the same compound, the “Post-emergence action against HORMU” value in the experiment on HORMU [5] stood at 100.

These data come from patent publication US11051515B2, “3-acyl-benzamides and their use as herbicides” (Bayer Aktiengesellschaft, priority 2017, dated 2021).
